How the values were obtained:
[1] = target: T1, recombinant full length APE1 (Homo sapiens, UniProt P27695); test: Cleavage of recombinant full length APE1, Western blot
T1 construct: the full length APE1 protein was successfully expressed and purified; made in house; host or cells: E. coli BL21/DE3
Experimental: (§1) Total purified protein concentration was determined by the ratio of A280/A260. 250 ng of APE1 treated with lucanthone or hycanthone (0.05–100 µM) for 2 h at 37°C in final volume of 30 µl were mixed with an equal volume of gel loading buffer (0.001% bromophenol blue, 4% SDS, 10% 2-ME, 20% glycerol, and 125 mM Tris pH 6.8) and denatured at 95°C for 5 min. Total protein concentration in cell extracts was determined using the Bradford assay (BioRad, Hercules, CA) and 25 µg of total protein from soluble or insoluble cell fractions were mixed with an equal volume of gel loading buffer (0.001% bromophenol blue, 4% SDS, 10% 2-ME, 20% glycerol, and 125 mM Tris pH 6.8) and denatured at 95°C for 5 min. This mixture was separated by SDS-PAGE (4% stacking, 7.5% resolving gel) for 2–3 h at 40 mA on a BioRad MiniPROTEAN II Electrophoresis Cell. To detect proteins, proteins were transferred onto a trans-Blot nitrocellulose membrane (0.45 µm; BioRad) overnight at 4°C at 15 mA in standard Tris-Glycine buffer containing 20% ethanol. […] Chemi-luminescence was developed using an ECL kit according to the manufacturer's instructions and detected by exposing the blot to HyperfilmECL for 30 s–3 min. […]

APE1 [2] = target: T2, APE1 (Homo sapiens, UniProt P27695); test: Far UV circular dichroism of APE1 with drug (CDSSTR/DICHROWEB); set-up: the full length APE1 protein was successfully expressed and purified; made in house; host or cells: E. coli BL21/DE3; Helix 1 / Helix 2 / Strand 1 / Strand 2 / Turns / Unordered: unit not given here; settings: APE1 plus drug (1 mg/ml, 50 µl), 37°C, 60 min
Experimental: APE1 and its mutant proteins (10 mg/ml), 50 µl (500 µg) (14 µM) in APE1 buffer (50 mM HEPES, pH 7.4, 150 mM KCl, 5 mM MgCl2), were mixed with lucanthone/hycanthone (1 mg/ml), 50 µl (50 µg), 140 µM and incubated at 37°C for 60 min and far UV-CD spectra were recorded at NSLS U11 beam line at BNL. Lucanthone and hycanthone were also scanned as drug controls. The scanning parameters used were a 0.001 cm path length quartz cell, scanning wavelengths from 260 to 170 nm, bandwidth of 0.5 nm, digital integration time of 1 s, time constant of 200 ms, step size of 1 nm, and sensitivity of 200 µV. The data were corrected with blank subtraction from APE1 buffer alone. The secondary structure for APE1 with or without lucanthone or hycanthone was analyzed using CDSSTR program DICHROWEB [38].

APE1 [3] = target: T2, APE1; test: EMSA (gel mobility shift) of APE1 DNA binding capacity with THF-containing substrate; format: biochemical; set-up: the full length APE1 protein was successfully expressed and purified; made in house; host or cells: E. coli BL21/DE3; settings: 100 µM drug preincubated with APE1 30 min
Experimental: In order to elucidate whether lucanthone and hycanthone could inhibit APE1 by interfering with APE1-DNA interaction through their DNA intercalation ability, we measured the DNA binding capacity of APE1 in the presence of lucanthone and hycanthone by incubating different concentrations of APE1 (10 nM and 25 nM) with 100 µM of lucanthone and/or hycanthone for 30 min and subsequently incubating the mixture with 25 nM of THF-containing substrate at 25°C in binding buffer (50 mM HEPES, pH 7.5, 150 mM NaCl, 0.1 mg/ml BSA, 0.5 mM EDTA and 1 mM DTT) for 30 min. THF stands for tetrahydrofuran that represents a synthetic abasic site. This is commonly inserted into an oligonucleotide substrate for measuring APE1 cleavage activity. 5′-incision of THF by APE1 results in a residue that mimics reduced 5′-deoxyribose phosphate group. Since THF group lacks the 1′-OH group, it blocks β-elimination that is required for mediating any dRP lyase activity. The sequence of the APE1 substrate with THF group is 5′[…]-3′ as described by Liu et al.
APE1-DNA complex was then separated from unbound substrate DNA by electrophoresis under native conditions in a 1% agarose-0.1% acrylamide gel at 4°C for 1.5 h as described previously [50]–[51].

tubulin = test: Tubulin stability in U251 1-5 whole cell extracts, Western blot; settings: lucanthone 2.5-100 µM; CRT at 200 µM
Experimental: as §1

T2 sequence (P27695 whole entry): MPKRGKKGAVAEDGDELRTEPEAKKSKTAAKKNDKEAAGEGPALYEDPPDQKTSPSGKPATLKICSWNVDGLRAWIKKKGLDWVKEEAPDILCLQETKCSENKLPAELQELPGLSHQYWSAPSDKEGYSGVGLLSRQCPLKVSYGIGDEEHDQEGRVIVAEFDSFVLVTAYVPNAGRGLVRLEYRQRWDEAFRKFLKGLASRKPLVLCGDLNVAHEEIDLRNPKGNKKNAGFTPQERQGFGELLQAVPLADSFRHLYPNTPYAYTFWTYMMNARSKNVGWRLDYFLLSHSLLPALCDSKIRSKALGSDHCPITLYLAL
T1 sequence (P27695 whole entry): as above

Row | Structure (SMILES) | Lucanthone-induced cleavage of APE1 in presence of radical quenchers ([1]; 10 mM TRIS, 100 µM ascorbic acid or N-acetyl cysteine (purified APE1), 1% DMSO (cell extracts)) | Cleavage of recombinant APE1 ([1]; 10-50 µM, 37°C, 2 h) | Av. helix length per segment (APE1 [2]) | Av. strand length per segment (APE1 [2]) | Helix 1 (APE1 [2]) | Helix 2 (APE1 [2]) | Strand 1 (APE1 [2]) | Strand 2 (APE1 [2]) | Turns (APE1 [2]) | Unordered (APE1 [2]) | Inhibition of DNA binding capacity of APE1 (APE1 [3]) | Effect on tubulin protein (tubulin)
1 | CCN(CC)CCNc1ccc(C)c2sc3ccccc3c(=O)c12 [lucanthone, 1-[2-diethylaminoethylamino]-4-methylthioxanthen-9-one] | significantly inhibited | increase in the formation of the 25 kDa fragment | 4.053 | 5.762 | 0.00 | 0.071 | 0.262 | 0.140 | 0.125 | 0.403 | marginally inhibited | unaffected
2 | CCN(CC)CCNc1ccc(CO)c2sc3ccccc3c(=O)c12 [hycanthone] |  |  | 4.020 | 5.799 | 0.00 | 0.069 | 0.267 | 0.141 | 0.124 | 0.399 | not at all | 

— article PMC3174134, “Lucanthone and Its Derivative Hycanthone Inhibit Apurinic Endonuclease-1 (APE1) by Direct Protein Binding” (PLoS ONE, 2011)
